The target of this assay is Glutaminyl-peptide cyclotransferase (Homo sapiens, UniProt Q16769).

We go through one compound from ChEMBL document CHEMBL6114983 (Bioorg Med Chem, 2025).

Chain of Glutaminyl-peptide cyclotransferase (Q16769 whole entry): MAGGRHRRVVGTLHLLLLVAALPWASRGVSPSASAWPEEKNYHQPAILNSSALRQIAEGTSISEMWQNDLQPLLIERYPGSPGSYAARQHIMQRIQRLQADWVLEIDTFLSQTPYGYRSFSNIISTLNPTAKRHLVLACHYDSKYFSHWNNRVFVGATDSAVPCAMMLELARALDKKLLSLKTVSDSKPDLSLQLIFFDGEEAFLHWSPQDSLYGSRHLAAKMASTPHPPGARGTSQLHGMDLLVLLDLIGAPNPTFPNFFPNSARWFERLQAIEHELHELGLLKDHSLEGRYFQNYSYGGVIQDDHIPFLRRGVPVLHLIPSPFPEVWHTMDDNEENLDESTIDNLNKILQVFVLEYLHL

In general, IC50 refers to the concentration needed to halve the response being measured. A lower IC50 goes with greater potency. On to `COc1ccc(N(C(=S)NCCCn2cncc2C)C2CCN(C)CC2)cc1OC`, for which the IC50 was determined as 3.36 nM.
